Reference: the NIST ThermoML archive (doi:10.1016/j.fluid.2011.02.020)

Assay: mn = molality of the nth substance listed, in mol/kg
Conditions: 298.15 K, 101 kPa, Liquid, Vibrating tube method

FC(F)(F)C(F)(F)C(F)(F)C(F)(F)C(F)(F)C(F)(F)C(F)(F)C(F)(F)C(F)(F)F [eicosafluorononane] + CCCCCCCC
Conditions	molar volume [m3/mol]
m1 = 0.0532	0.0003069
m1 = 0.0565	0.000307
m1 = 0.0714	0.0003073
m1 = 0.0832	0.0003067
m1 = 0.1105	0.000307
m1 = 0.1219	0.0003062
m1 = 0.1488	0.0003058
m1 = 0.1513	0.0003065

CCCCCCC(F)(F)C(F)(F)C(F)(F)C(F)(F)F [1,1,1,2,2,3,3,4,4-nonafluorodecane] + CCCCCCCC
Conditions	molar volume [m3/mol]
m1 = 0.0465	0.0002496
m1 = 0.0608	0.0002501
m1 = 0.0703	0.0002498
m1 = 0.1003	0.0002498
m1 = 0.1403	0.0002498
m1 = 0.1663	0.0002493
m1 = 0.1689	0.0002492
m1 = 0.2127	0.0002497

FC(F)(F)C(F)(F)C(F)(F)C(F)(F)C(F)(F)C(F)(F)C(F)(F)C(F)(F)F [octadecafluorooctane] + CCCCCCCC
Conditions	molar volume [m3/mol]
m1 = 0.0362	0.0002822
m1 = 0.0617	0.0002816
m1 = 0.0923	0.0002798
m1 = 0.1157	0.0002803
m1 = 0.1445	0.0002792
m1 = 0.1585	0.0002786
m1 = 0.1808	0.0002784
m1 = 0.2115	0.0002788

CCCCCCCCC(F)(F)C(F)(F)C(F)(F)C(F)(F)F [1,1,1,2,2,3,3,4,4-nonafluorododecane] + CCCCCCCC
Conditions	molar volume [m3/mol]
m1 = 0.0685	0.0002816
m1 = 0.0996	0.0002815
m1 = 0.1061	0.0002817
m1 = 0.1259	0.0002815
m1 = 0.1271	0.0002817
m1 = 0.1522	0.0002818
m1 = 0.1885	0.0002815
m1 = 0.2032	0.0002815

CCCCCC(F)(F)C(F)(F)C(F)(F)C(F)(F)F [1,1,1,2,2,3,3,4,4-nonafluorononane] + CCCCCCCC
Conditions	molar volume [m3/mol]
m1 = 0.0527	0.0002338
m1 = 0.0601	0.0002337
m1 = 0.0947	0.0002337
m1 = 0.1337	0.0002337
m1 = 0.1437	0.0002336
m1 = 0.1755	0.0002334
m1 = 0.1914	0.0002334
m1 = 0.2141	0.0002334

FC(F)(F)C(F)(F)C(F)(F)C(F)(F)C(F)(F)C(F)(F)F [perfluorohexane] + CCCCCCCC
Conditions	molar volume [m3/mol]
m1 = 0.088	0.0002294
m1 = 0.1035	0.0002312
m1 = 0.131	0.0002293
m1 = 0.1624	0.0002278
m1 = 0.1833	0.0002292
m1 = 0.2156	0.0002299
m1 = 0.2594	0.0002276
m1 = 0.268	0.0002308
m1 = 0.304	0.0002288
m1 = 0.3424	0.0002285
m1 = 0.3621	0.00023
m1 = 0.4051	0.0002288
